Where a name gives a salt, the structure may show the parent alone.
Species on record: Rattus norvegicus
Assay: Open TG-GATES - Regimen: Single
Assay type: toxicity, organism-based, Sprague-Dawley
Parameters: regimen Single, gender Male, age 6 weeks
Conditions: in vivo, ip, 240 mg/kg, route intraperitoneal injection, dose level Middle; for APTT / Bas / Eos / Fbg / Hb / Ht / Lym / MCH / MCHC / MCV / Mono / Neu / PT / Plat / RBC / Ret / WBC: tissue Blood; for KIDNEY_L / KIDNEY_R / KIDNEY_TOTAL: tissue Kidney; for LIVER: tissue Liver; for A/G / ALP / ALT / AST / BUN / CRE / Ca / Cl / DBIL / GLC / IP / K / LDH / Na / PL / RALB / TBIL / TC / TG / TP / gamma-GTP: tissue Plasma

## CCOC(=O)/C=C\C(=O)OCC [DIETHYL MALEATE]
3 h
  TERMINAL_BW: 196.7 g
  APTT: 16 s
  Bas: 0%
  Eos: 1%
  Fbg: 206.2 mg/dL
  Hb: 13.4 g/dL
  Ht: 40.3%
  Lym: 72%
  MCH: 21.3 pg
  MCHC: 33.3%
  MCV: 63.8 fL
  Mono: 5.6%
  Neu: 21.6%
  PT: 12.4 s
  Plat: 124.8 x10_4/uL
  RBC: 631.8 x10_4/ul
  Ret: 9.7%
  WBC: 90.3 x10_2/uL
  KIDNEY_L: 0.9 g
  KIDNEY_R: 0.9 g
  KIDNEY_TOTAL: 1.8 g
  LIVER: 8.5 g
  A/G: 2.1
  ALP: 700.6 IU/L
  ALT: 35.8 IU/L
  AST: 80.6 IU/L
  BUN: 17 mg/dL
  CRE: 0.5 mg/dL
  Ca: 10.9 mg/dL
  Cl: 105.4 meq/L
  DBIL: 0.02 mg/dL
  GLC: 191.8 mg/dL
  IP: 10.9 mg/dL
  K: 5.2 meq/L
  LDH: 147 IU/L
  Na: 138.4 meq/L
  PL: 126 mg/dL
  RALB: 3.6 g/dL
  TBIL: 0.4 mg/dL
  TC: 71.8 mg/dL
  TG: 30.4 mg/dL
  TP: 5.3 g/dL
  gamma-GTP: 1.2 IU/L
6 h
  TERMINAL_BW: 199.7 g
  APTT: 16.1 s
  Bas: 0%
  Eos: 0.8%
  Fbg: 210.2 mg/dL
  Hb: 13 g/dL
  Ht: 38.9%
  Lym: 71.2%
  MCH: 22 pg
  MCHC: 33.3%
  MCV: 66 fL
  Mono: 6.8%
  Neu: 21.4%
  PT: 12.2 s
  Plat: 121.8 x10_4/uL
  RBC: 589.4 x10_4/ul
  Ret: 10.6%
  WBC: 107.7 x10_2/uL
  KIDNEY_L: 0.9 g
  KIDNEY_R: 0.9 g
  KIDNEY_TOTAL: 1.9 g
  LIVER: 8.6 g
  A/G: 1.9
  ALP: 729.6 IU/L
  ALT: 35 IU/L
  AST: 69.8 IU/L
  BUN: 14.8 mg/dL
  CRE: 0.5 mg/dL
  Ca: 10.7 mg/dL
  Cl: 106.6 meq/L
  DBIL: 0.004 mg/dL
  GLC: 192.6 mg/dL
  IP: 9.8 mg/dL
  K: 5 meq/L
  LDH: 112.8 IU/L
  Na: 139.2 meq/L
  PL: 131 mg/dL
  RALB: 3.5 g/dL
  TBIL: 0.4 mg/dL
  TC: 82.8 mg/dL
  TG: 39.6 mg/dL
  TP: 5.3 g/dL
  gamma-GTP: 1.4 IU/L
9 h
  TERMINAL_BW: 195.9 g
  APTT: 17 s
  Bas: 0%
  Eos: 1%
  Fbg: 209 mg/dL
  Hb: 13 g/dL
  Ht: 38.5%
  Lym: 74.8%
  MCH: 21.8 pg
  MCHC: 33.6%
  MCV: 64.7 fL
  Mono: 5.4%
  Neu: 19%
  PT: 12.2 s
  Plat: 115.5 x10_4/uL
  RBC: 595 x10_4/ul
  Ret: 9.6%
  WBC: 90.7 x10_2/uL
  KIDNEY_L: 0.9 g
  KIDNEY_R: 0.9 g
  KIDNEY_TOTAL: 1.7 g
  LIVER: 7.8 g
  A/G: 2.2
  ALP: 849.2 IU/L
  ALT: 34.6 IU/L
  AST: 71.8 IU/L
  BUN: 12.2 mg/dL
  CRE: 0.4 mg/dL
  Ca: 10.7 mg/dL
  Cl: 108.2 meq/L
  DBIL: 0.016 mg/dL
  GLC: 188.4 mg/dL
  IP: 9.7 mg/dL
  K: 4.7 meq/L
  LDH: 77.6 IU/L
  Na: 139.4 meq/L
  PL: 120.4 mg/dL
  RALB: 3.5 g/dL
  TBIL: 0.4 mg/dL
  TC: 67.6 mg/dL
  TG: 33.4 mg/dL
  TP: 5.2 g/dL
  gamma-GTP: 1.2 IU/L
24 h
  TERMINAL_BW: 210.6 g
  APTT: 15.9 s
  Bas: 0%
  Eos: 1%
  Fbg: 218.4 mg/dL
  Hb: 13.5 g/dL
  Ht: 40%
  Lym: 81.2%
  MCH: 21.9 pg
  MCHC: 33.6%
  MCV: 65 fL
  Mono: 4%
  Neu: 14%
  PT: 11.5 s
  Plat: 114.2 x10_4/uL
  RBC: 615.6 x10_4/ul
  Ret: 9.9%
  WBC: 113 x10_2/uL
  KIDNEY_L: 0.9 g
  KIDNEY_R: 0.9 g
  KIDNEY_TOTAL: 1.9 g
  LIVER: 10.2 g
  A/G: 2.3
  ALP: 871.4 IU/L
  ALT: 39.8 IU/L
  AST: 68.2 IU/L
  BUN: 17.6 mg/dL
  CRE: 0.5 mg/dL
  Ca: 10.8 mg/dL
  Cl: 106.2 meq/L
  DBIL: 0.02 mg/dL
  GLC: 198 mg/dL
  IP: 8.2 mg/dL
  K: 5.2 meq/L
  LDH: 125.2 IU/L
  Na: 139 meq/L
  PL: 145.4 mg/dL
  RALB: 3.8 g/dL
  TBIL: 0.4 mg/dL
  TC: 78 mg/dL
  TG: 99.2 mg/dL
  TP: 5.5 g/dL
  gamma-GTP: 1.8 IU/L
